# Test results taken from ChEMBL document CHEMBL1201862, “PubChem BioAssay data set” (2004).
# Calls of active or inactive are those of the source.
# What was measured:
# [1] = target: T1, Kappa-type opioid receptor (Homo sapiens, UniProt P41145); experiment: KOR agonist analogs, imaging readout, SAR follow-up, image-based (AID 2359); assay type: functional
# [2] = target: T1, Kappa-type opioid receptor; experiment: SAR analysis of small molecule agonists of the kappa opioid receptor via a luminescent beta-arrestin assay. [Related pubchem assays (depositor defined):AID1777, AID1786, AID1966, AID2133, AID2136, AID2348, AID2352, AID2357, AID2359, AID2370, AID2420, AID2478, AID2491, AID2492, AID2493, AID2497, AID2498, AID2500, AID449737, AID488822, AID488842]; assay type: functional
# [3] = target: T2, Delta-type opioid receptor (Homo sapiens, UniProt P41143); experiment: DOR agonists, SAR follow-up, image-based (AID 2370); assay type: functional
# T2 sequence (P41143 whole entry): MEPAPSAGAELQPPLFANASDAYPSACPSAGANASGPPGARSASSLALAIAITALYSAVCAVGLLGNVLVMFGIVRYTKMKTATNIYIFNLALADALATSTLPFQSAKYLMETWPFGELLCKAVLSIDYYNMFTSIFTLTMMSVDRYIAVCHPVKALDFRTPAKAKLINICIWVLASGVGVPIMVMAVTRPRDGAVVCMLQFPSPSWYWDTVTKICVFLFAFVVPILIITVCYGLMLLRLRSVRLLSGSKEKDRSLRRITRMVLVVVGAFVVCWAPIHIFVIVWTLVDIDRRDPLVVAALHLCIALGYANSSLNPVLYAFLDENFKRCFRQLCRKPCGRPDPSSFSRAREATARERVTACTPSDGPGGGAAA
# [4] = target: T2, Delta-type opioid receptor; experiment: DOR antagonists, SAR follow-up, image-based (AID 2357); assay type: functional
# [5] = target: T3, Neuropeptides B/W receptor type 1 (Homo sapiens, UniProt P48145); experiment: Fluorescence-based dose response cell-based high throughput screening assay to identify antagonists of the G-protein coupled receptor 7 (GPR7). [Related pubchem assays: 1952 (Screening assay (GPR7 antagonists).), 1880 (Summary AID.)]; assay type: functional
# T3 sequence (P48145 whole entry): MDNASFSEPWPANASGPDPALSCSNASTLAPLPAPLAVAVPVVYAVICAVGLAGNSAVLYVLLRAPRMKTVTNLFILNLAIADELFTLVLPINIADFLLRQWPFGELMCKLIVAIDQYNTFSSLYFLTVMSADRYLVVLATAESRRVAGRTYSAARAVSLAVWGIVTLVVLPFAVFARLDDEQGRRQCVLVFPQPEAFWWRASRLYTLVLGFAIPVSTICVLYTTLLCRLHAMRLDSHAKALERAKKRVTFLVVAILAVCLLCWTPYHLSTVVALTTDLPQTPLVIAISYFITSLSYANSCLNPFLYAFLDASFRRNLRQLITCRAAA
# Mu-type opioid receptor [6] = target: T4, Mu-type opioid receptor (Homo sapiens, UniProt P35372); experiment: MOR antagonists, SAR follow-up, image-based (AID 2420); assay type: functional;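 further: compounds added before stimulation of receptor with agonist DAMGO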
# T4 sequence (P35372 whole entry): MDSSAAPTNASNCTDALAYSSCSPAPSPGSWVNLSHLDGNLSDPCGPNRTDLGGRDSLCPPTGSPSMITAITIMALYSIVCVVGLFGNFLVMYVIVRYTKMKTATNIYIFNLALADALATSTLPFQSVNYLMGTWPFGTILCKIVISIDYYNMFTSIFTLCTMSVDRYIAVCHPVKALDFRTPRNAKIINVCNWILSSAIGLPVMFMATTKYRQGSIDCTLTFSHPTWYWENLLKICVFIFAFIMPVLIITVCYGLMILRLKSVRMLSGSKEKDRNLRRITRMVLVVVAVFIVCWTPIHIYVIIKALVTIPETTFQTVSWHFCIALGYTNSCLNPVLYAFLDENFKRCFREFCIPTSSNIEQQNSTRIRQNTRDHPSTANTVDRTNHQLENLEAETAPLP
# Mu-type opioid receptor [7] = target: T4, Mu-type opioid receptor; experiment: MOR agonists by imaging, SAR follow-up, image-based (AID 2352); assay type: functional
# [8] = target: Melanin-concentrating hormone receptor 1 (Homo sapiens, UniProt Q99705); experiment: Fluorescence-based counterscreen for antagonists of the G-protein coupled receptor 7 (GPR7): cell-based high throughput dose response assay to identify antagonists of the melanin-concentrating hormone receptor 1 (MCHR1).; assay type: functional
# Sequence of Melanin-concentrating hormone receptor 1 (Q99705 whole entry): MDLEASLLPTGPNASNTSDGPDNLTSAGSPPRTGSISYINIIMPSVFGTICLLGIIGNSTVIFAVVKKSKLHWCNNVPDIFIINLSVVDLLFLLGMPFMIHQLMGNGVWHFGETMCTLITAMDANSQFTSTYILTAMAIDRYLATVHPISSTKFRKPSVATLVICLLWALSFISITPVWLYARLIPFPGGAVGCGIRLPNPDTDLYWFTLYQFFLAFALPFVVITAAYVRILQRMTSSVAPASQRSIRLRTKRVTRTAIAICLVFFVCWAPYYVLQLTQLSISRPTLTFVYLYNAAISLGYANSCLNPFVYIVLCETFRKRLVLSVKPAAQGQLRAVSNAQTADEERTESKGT
# [9] = target: T1, Kappa-type opioid receptor; experiment: KOR antagonists by imaging, SAR follow-up, image-based (AID 2348); assay type: functional
# [10] = target: T5, Runt-related transcription factor 1/Core-binding factor subunit beta (Homo sapiens, UniProt Q01196+Q13951); experiment: inhibitors of RUNX1 Runt–CBFb-SMMHC binding, biochemical, TR-FRET (AID 1438); assay type: protein assay
# T5 sequence (Q01196 whole entry, the tested form may be a part): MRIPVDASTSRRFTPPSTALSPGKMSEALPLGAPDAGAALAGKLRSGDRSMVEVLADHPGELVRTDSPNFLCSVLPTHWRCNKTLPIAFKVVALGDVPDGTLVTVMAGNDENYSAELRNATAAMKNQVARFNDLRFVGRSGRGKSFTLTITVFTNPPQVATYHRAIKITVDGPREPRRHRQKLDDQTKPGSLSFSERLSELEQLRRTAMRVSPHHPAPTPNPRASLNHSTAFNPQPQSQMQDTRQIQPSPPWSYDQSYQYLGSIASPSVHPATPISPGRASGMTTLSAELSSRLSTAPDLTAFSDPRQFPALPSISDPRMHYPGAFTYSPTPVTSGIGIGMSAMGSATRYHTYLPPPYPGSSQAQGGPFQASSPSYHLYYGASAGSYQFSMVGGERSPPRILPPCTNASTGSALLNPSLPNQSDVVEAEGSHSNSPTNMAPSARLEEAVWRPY
# T5 sequence (Q13951 whole entry, the tested form may be a part): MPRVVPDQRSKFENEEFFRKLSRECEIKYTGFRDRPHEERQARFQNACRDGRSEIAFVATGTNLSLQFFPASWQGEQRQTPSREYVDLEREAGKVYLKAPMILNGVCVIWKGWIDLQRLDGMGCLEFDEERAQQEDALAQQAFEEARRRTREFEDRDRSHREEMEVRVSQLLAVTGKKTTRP
# [11] = target: T5, Runt-related transcription factor 1/Core-binding factor subunit beta; experiment: inhibitors of RUNX1 Runt–CBFb-SMMHC binding, primary screen, biochemical, FRET, Cerulean-Runt, Venus-CBFb-SMMHC, uHTS (AID 1434); assay type: protein assay;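 further: partner is the CBFb-SMMHC leukemia fusion protein rather than wild-type CBFb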
# [12] = target: Intestinal-type alkaline phosphatase (Homo sapiens, UniProt P09923); experiment: human intestinal alkaline phosphatase activators, dose response, biochemical, luminescence, uHTS hits (AID 463120); assay type: functional
# Sequence of Intestinal-type alkaline phosphatase (P09923 whole entry): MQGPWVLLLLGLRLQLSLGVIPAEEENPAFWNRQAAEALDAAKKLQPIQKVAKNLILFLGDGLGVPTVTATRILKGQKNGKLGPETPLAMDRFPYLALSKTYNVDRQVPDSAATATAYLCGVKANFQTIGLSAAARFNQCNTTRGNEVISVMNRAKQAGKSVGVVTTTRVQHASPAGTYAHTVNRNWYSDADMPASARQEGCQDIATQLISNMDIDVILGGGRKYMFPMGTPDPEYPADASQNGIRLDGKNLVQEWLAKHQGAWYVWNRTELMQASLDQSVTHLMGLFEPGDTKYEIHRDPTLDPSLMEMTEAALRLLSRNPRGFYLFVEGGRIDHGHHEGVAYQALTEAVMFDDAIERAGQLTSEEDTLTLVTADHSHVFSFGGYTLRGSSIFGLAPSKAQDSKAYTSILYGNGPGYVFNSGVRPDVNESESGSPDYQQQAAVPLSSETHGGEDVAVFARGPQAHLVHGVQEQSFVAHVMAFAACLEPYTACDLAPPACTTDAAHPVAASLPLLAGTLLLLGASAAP
# [13] = target: T1, Kappa-type opioid receptor; experiment: SAR analysis of small molecule antagonists of the kappa opioid receptor via a luminescent beta-arrestin assay - Set 5. [Related pubchem assays (depositor defined):AID1778, AID1785]; assay type: functional
# [14] = target: T1, Kappa-type opioid receptor; experiment: SAR analysis of small molecule antagonists of the kappa opioid receptor via a luminescent beta-arrestin assay - Set 4. [Related pubchem assays (depositor defined):AID1777, AID1778, AID1785, AID1786, AID1966, AID2133, AID2136, AID2285]; assay type: functional
# T1 sequence (P41145 whole entry): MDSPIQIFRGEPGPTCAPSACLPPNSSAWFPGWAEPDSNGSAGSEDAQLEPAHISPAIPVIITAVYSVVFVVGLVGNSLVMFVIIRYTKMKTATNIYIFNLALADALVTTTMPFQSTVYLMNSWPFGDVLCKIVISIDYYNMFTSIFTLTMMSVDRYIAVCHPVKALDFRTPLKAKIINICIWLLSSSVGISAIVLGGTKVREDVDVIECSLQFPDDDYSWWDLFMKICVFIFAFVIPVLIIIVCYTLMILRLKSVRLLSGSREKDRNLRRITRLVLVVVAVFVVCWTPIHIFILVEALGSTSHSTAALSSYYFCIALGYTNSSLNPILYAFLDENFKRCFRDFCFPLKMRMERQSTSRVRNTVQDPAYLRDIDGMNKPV
compound,measurement,setting,value
O=C(c1cnccn1)N(Cc1ccco1)C1(C(=O)NC2CCCC2)CCCCC1,EC50,[1],> 32 µM (inactive)
same,EC50,[2],> 10 µM (inactive)
same,EC50,[3],> 32 µM (inactive)
same,IC50,[4],> 32 µM (inactive)
same,IC50,[5],> 43.8 µM (not active)
same,IC50,Mu-type opioid receptor [6],> 32 µM (inactive)
same,EC50,Mu-type opioid receptor [7],> 32 µM (inactive)
same,IC50,[8],> 43.8 µM (not active)
same,IC50,[9],> 32 µM (inactive)
CC(C)C(=O)N(c1cc2sc(=O)oc2c2ccccc12)S(=O)(=O)c1cccs1,IC50,[10],> 100 µM (inactive)
same,IC50,[11],> 100 µM (inactive)
Cc1cc(C)c2nc(SCC(=O)NNC(=O)c3ccco3)c(C)cc2c1,EC50,[12],12.7 µM (active)
Cc1ccccc1S(=O)(=O)NCc1ccc(C(=O)NCCN(Cc2ccccc2)C(C)C)cc1,IC50,[13],2.34 µM (active)
same,IC50,[14],2.49 µM (active)
